Structures can show the parent of a compound that is named as a salt.

T2 sequence (Q96GD4 whole entry): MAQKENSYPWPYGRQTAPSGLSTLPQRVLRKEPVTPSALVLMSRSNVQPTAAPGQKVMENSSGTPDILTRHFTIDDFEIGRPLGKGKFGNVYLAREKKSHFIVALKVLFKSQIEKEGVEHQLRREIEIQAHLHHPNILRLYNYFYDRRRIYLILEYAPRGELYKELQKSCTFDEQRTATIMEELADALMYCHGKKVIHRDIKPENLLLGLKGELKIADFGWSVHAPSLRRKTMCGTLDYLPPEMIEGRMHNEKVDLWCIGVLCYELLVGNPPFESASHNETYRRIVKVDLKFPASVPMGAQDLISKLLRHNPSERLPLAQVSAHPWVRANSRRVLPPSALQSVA

One assay addresses T1, human PLK4 (Homo sapiens, UniProt O00444).
T1 construct: amino terminal GST fusion of residues 1-391 of human PLK4; made in house; host or cells: E. coli
T1 sequence (O00444 1-391): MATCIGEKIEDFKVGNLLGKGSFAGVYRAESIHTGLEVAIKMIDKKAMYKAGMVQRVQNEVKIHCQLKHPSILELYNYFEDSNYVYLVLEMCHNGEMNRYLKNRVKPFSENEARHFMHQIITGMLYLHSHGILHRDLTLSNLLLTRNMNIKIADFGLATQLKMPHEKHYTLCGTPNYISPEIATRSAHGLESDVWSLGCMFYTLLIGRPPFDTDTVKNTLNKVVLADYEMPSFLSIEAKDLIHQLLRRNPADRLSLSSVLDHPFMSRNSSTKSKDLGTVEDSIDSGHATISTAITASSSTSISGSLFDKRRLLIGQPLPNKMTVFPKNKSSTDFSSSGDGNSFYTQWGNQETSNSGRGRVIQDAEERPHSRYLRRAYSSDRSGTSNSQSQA
The assay is described as follows: PLK4 Inhibition Assay (indirect ELISA). It is filed as biochemical. The note with it: 15 μM ATP, 4 nM GST-PLK4; read-out: PLK4 IC50 Ranges. As for the experimental part: The protein was purified from clarified cell extracts after induction at 15° C. overnight using glutathione sepharose, gel permeation chromatography, and ion exchange (Resource Q). The resulting protein was dephosphorylated with lambda phosphatase (NEB cat #P0753), and resolved from the phosphatase using gluthione sepharose. The dephosphorylated GST-PLK4 was stored in aliquots at −80° C. until use. PLK4 activity was measured using an indirect ELISA detection system. […] Compounds were pre-incubated in the presence of enzyme for 15 minutes prior to addition of ATP and the activity remaining quantified using the above described activity assay. […] The IC50 value was determined using a non-linear 4 point logistic curve fit (XLfit4, IDBS) with the formula; (A+(B/(1+((x/C)^D)))), where A=background value, B=range, C=inflection point, D=curve fit parameter.
(ELISA stands for enzyme-linked immunosorbent assay.)
With `O=C1Nc2cc(-c3cccnc3)ccc2C1=Cc1ccc2cn[nH]c2c1` (mixture of isomers) [Example A28, (E and Z)-3-(3-((1H-indazol-6-yl)methylene)-2-oxoindolin-6-yl)pyridinium 2,2,2-trifluoroacetate], the IC50 (usually the concentration needed to halve the response being measured) was 5 to 50 µM.
As to `Nc1n[nH]c2ccc(C=C3C(=O)Nc4ccccc43)cc12` (mixture of isomers) [Example A40, (E & Z)-3-((3-amino-1H-indazol-5-yl)methylene)indolin-2-one], the 50% inhibitory concentration (IC50) lay within 5 to 50 µM.
Regarding `COC(=O)c1cccc2c1NC(=O)C2=Cc1ccc2cn[nH]c2c1` (mixture of isomers) [Example A46, (E and Z)-methyl 3-((1H-indazol-6-yl)methylene)-2-oxoindoline-7-carboxylate], the IC50 is under 5 µM.
On the same count and under the same terms, the same measure for `O=CNc1cccc2c1NC(=O)C2=Cc1ccc2cn[nH]c2c1` (mixture of isomers) [Example A50, (E and Z)—N-(3-((1H-indazol-6-yl)methylene)-2-oxoindolin-7-yl)formamide]: under 5 µM.
`O=C1Nc2ccccc2C1=Cc1cc(/C=C/c2ccncc2)c2cn[nH]c2c1` (mixture of isomers) [Example A55, (E and Z)-3-((4-((E)-2-(pyridin-4-yl)vinyl)-1H-indazol-6-yl)methylene)indolin-2-one]: the IC50 was under 5 µM.
Turning to `CN1CCN(C(=O)/C=C/c2n[nH]c3cc(C=C4C(=O)Nc5ccccc54)ccc23)CC1` (mixture of isomers) [Example A66, (E and Z)-3-((3-((E)-3-(4-methylpiperazin-1-yl)-3-oxoprop-1-enyl)-1H-indazol-6-yl)methylene)indolin-2-one], the IC50 is under 5 µM.
Same read-out and setting: then `O=C1Nc2ccc(C(F)(F)F)cc2C1=Cc1ccc2cn[nH]c2c1` (mixture of isomers) [Example A82, (E and Z)-3-((1H-indazol-6-yl)methylene)-5-(trifluoromethyl)-indolin-2-one], with under 5 µM.
For `O=C1Nc2ccccc2C1=Cc1ccc2c(-c3cc4ccccc4[nH]3)n[nH]c2c1` (mixture of isomers) [Example A90, (E and Z)-3-((3-(1H-indol-2-yl)-1H-indazol-6-yl)methylene)indolin-2-one], the concentration for half-maximal inhibition (IC50) is under 5 µM.
In the case of `O=C1Nc2ccccc2C1=Cc1ccc2c(-c3cnc4ccccc4c3)n[nH]c2c1` (mixture of isomers) [Example A95, (E and Z)-3-((3-(quinolin-3-yl)-1H-indazol-6-yl)methylene)indolin-2-one], the concentration for half-maximal inhibition (IC50) was under 5 µM.
Same read-out and setting: the same measure for `O=C1Nc2ccccc2C1=Cc1ccc2c(-c3ccn[nH]3)n[nH]c2c1` (mixture of isomers) [Example A98, (E and Z)-3-((3-(1H-pyrazol-5-yl)-1H-indazol-6-yl)methylene)-indolin-2-one]: under 5 µM.
As to `Cn1ccnc1/C=C/c1n[nH]c2cc(C=C3C(=O)Nc4ccccc43)ccc12` (mixture of isomers) [Example A105, (E and Z)-3-((3-((E)-2-(1-methyl-1H-imidazol-2-yl)vinyl)-1H-indazol-6-yl)methylene)indolin-2-one], the IC50 was under 5 µM.
The same measure, in the same setting: then `O=C1Nc2ccccc2C1=Cc1ccc2[nH]nc(/C=C/c3ccncc3)c2c1` (mixture of isomers) [Example A131, (E and Z)-3-((3-((E)-2-(pyridin-4-yl)vinyl)-1H-indazol-5-yl)-methylene)indolin-2-one hydrochloride], with under 5 µM; and `O=C1Nc2ccccc2C1=Cc1ccc2c(/C=C/c3ccc(CN4CCOCC4)cc3)n[nH]c2c1` (mixture of isomers) [Example A154, (E and Z)-3-((3-(4-(morpholinomethyl)styryl)-1H-indazol-6-yl)-methylene)indolin-2-one], with under 5 µM.
On to `CN1CCN(c2ccc(-c3n[nH]c4ccc(C=C5C(=O)Nc6ccccc65)cc34)cn2)CC1` (mixture of isomers) [Example A155, (E and Z)-3-((3-(6-(4-methylpiperazin-1-yl)pyridin-3-yl)-1H-indazol-5-yl)methylene)indolin-2-one], for which the IC50 is under 5 µM.
In the case of `O=C1Nc2ccccc2/C1=C\c1ccc2c(I)n[nH]c2c1` [Example A39, (E)-3-((3-iodo-1H-indazol-6-yl)methylene)indolin-2-one], the 50% inhibitory concentration (IC50) was under 5 µM.
Still for that read-out and setting: the same measure for `O=C1Nc2c(Br)cccc2/C1=C\c1ccc2cn[nH]c2c1` [Example A44, (E)-3-((1H-indazol-6-yl)methylene)-7-bromoindolin-2-one]: under 5 µM.
On the same count and under the same terms, then `CC(C)NC(=O)Nc1cccc2c1NC(=O)/C2=C/c1ccc2cn[nH]c2c1` [Example A48, (E)-1-(3-((1H-indazol-6-yl)methylene)-2-oxoindolin-7-yl)-3-isopropyl-urea], with under 5 µM; and `O=C1Nc2ccccc2/C1=C\c1cc(Cl)c2cn[nH]c2c1` [Example A52, (E)-3-((4-chloro-1H-indazol-6-yl)methylene)indolin-2-one], with under 5 µM; and `O=C1Nc2ccccc2/C1=C/c1cc(Br)c2cn[nH]c2c1` [Example A53b, (Z)-3-((4-bromo-1H-indazol-6-yl)methylene)indolin-2-one], with under 5 µM.
For the compound `O=C1Nc2ccccc2/C1=C\c1ccc2c(/C=C/c3ccc(C(F)(F)F)cc3)n[nH]c2c1` [Example A65, (E & Z)-3-((3-((E)-4-(trifluoromethyl)styryl)-1H-indazol-6-yl)-methylene)-indolin-2-one], the IC50 is under 5 µM.
For the compound `O=C1Nc2ncccc2/C1=C\c1ccc2[nH]ncc2c1` [Example A68, (E)-3-((1H-indazol-5-yl)methylene)-1H-pyrrolo[2,3-b]pyridin-2(3H)-one], the half-inhibitory concentration (IC50) is under 5 µM.
The same measure, in the same setting: the same measure for `O=C1Nc2ccccc2C1=Nc1ccc2cn[nH]c2c1` [Example A73, (E and Z)-3-(1H-indazol-6-ylimino)indolin-2-one]: under 5 µM; for `Cc1ccc2c(c1)C(=Nc1ccc3cn[nH]c3c1)C(=O)N2` [Example A74, (E and Z)-3-(1H-indazol-6-ylimino)-5-methylindolin-2-one]: under 5 µM.
Same read-out and setting: the same measure for `O=C1Nc2ccc(F)cc2C1=Nc1ccc2cn[nH]c2c1` [Example A75, (E and Z)-3-(1H-indazol-6-ylimino)-5-fluoroindolin-2-one]: 5 to 50 µM; for `O=C1Nc2cc(Br)ccc2C1=Nc1ccc2cn[nH]c2c1` [Example A76, (E and Z)-3-(1H-indazol-6-ylimino)-6-bromoindolin-2-one]: 5 to 50 µM; for `O=C1Nc2ccccc2C1=Nc1ccc2[nH]ncc2c1` [Example A77, (E and Z)-3-(1H-indazol-5-ylimino)indolin-2-one]: 5 to 50 µM.
On the same count and under the same terms, then `Cc1ccc2c(c1)C(=Nc1ccc3[nH]ncc3c1)C(=O)N2` [Example A78, (E and Z)-3-(1H-indazol-5-ylimino)-5-methylindolin-2-one], with under 5 µM; and `O=C1Nc2ccc(F)cc2C1=Nc1ccc2[nH]ncc2c1` [Example A79, (E and Z)-3-(1H-indazol-5-ylimino)-5-fluoroindolin-2-one], with 5 to 50 µM; and `O=C1Nc2ccccc2/C1=C\c1ccc2c(-c3nccs3)n[nH]c2c1` [Example A92, (E)-3-((3-(thiazol-2-yl)-1H-indazol-6-yl)methylene)indolin-2-one], with under 5 µM.
Regarding `O=C1Nc2ccccc2/C1=C\c1ccc2c(C3CC3)n[nH]c2c1` [Example A102, (E)-3-((3-cyclopropyl-1H-indazol-6-yl)methylene)indolin-2-one], the IC50 is under 5 µM.
Take `O=C1Nc2cccc(Br)c2/C1=C/c1ccc2cn[nH]c2c1` [Example A133, (Z)-3-((1H-indazol-6-yl)methylene)-4-bromoindolin-2-one]: the IC50 was under 5 µM.
As to `O=C1Nc2ccc(Cl)nc2/C1=C\c1ccc2cn[nH]c2c1` [Example A134, (E)-3-((1H-indazol-6-yl)methylene)-5-chloro-1H-pyrrolo[3,2-b]pyridin-2(3H)-one], the IC50 is under 5 µM.
For `COc1cc2c(cc1OC)/C(=C\c1ccc3cn[nH]c3c1)C(=O)N2` [Example A135, (E)-3-((1H-indazol-6-yl)methylene)-5,6-dimethoxyindolin-2-one], the IC50 is under 5 µM.

Another assay addresses T2, Aurora B (Homo sapiens, UniProt Q96GD4).
T2 construct: purchased Invitrogen PV3970
The assay is described as follows: Aurora B Inhibition Assay (Z-Lyte). It is filed as biochemical. The settings on record: 128 μM ATP, 28 nM Aurora B; read-out: Aurora B IC50 Ranges. The protocol:
Aurora B inhibition was determined using the Z-Lyte assay kit from Invitrogen. The assay was performed using the recommended manufacturer's instructions with 128 μM ATP and 28 nM Aurora B (Invitrogen cat #PV3970). The % inhibition values were determined according to the manufacturer's directions and IC50 values were obtained using a non-linear 4 point logistic curve fit (XLfit4, IDBS)
As to `O=C1Nc2ccccc2C1=Cc1cc(/C=C/c2ccncc2)c2cn[nH]c2c1` (mixture of isomers) [Example A55, (E and Z)-3-((4-((E)-2-(pyridin-4-yl)vinyl)-1H-indazol-6-yl)methylene)indolin-2-one], the IC50 was under 5 µM.
The same measure, in the same setting: the same measure for `COc1ccc2c(c1)/C(=C\c1ccc3c(/C=C/c4ccc(CN(C)C)cc4)n[nH]c3c1)C(=O)N2` [Example A136a, (E)-3-((3-(4-((dimethylamino)methyl)styryl)-1H-indazol-6-yl)-methylene)-5-methoxyindolin-2-one 2,2,2-trifluoroacetate]: under 5 µM.

The record behind these values is patent publication US8765748B2, “Indazolyl, benzimidazolyl, benzotriazolyl substituted indolinone derivatives as kinase inhibitors useful in the treatment of cancer” (University Health Network, priority 2007, dated 2014).
